# Results from patent US8785460B2, “Tricyclic compounds and use thereof” (Takeda Pharmaceutical Company Limited, priority 2008, dated 2014).
# Key:
# [1] = molecular target: T1, human CRF1 receptor (Homo sapiens, UniProt P34998); assay: Measurement of CRF Binding Inhibitory Rate (receptor binding experiment with 125I-CRF); conditions: human CRF1 receptor expressing CHO cellular membrane fraction, 50 pM 125I-CRF, room temperature 1.5 hr, 0.05 nM to 10 μM of compound; read-out: IC50 values (CRF binding inhibition)
# T1 construct: expressed in transfected cells; host or cells: CHO cells (membrane fraction)
# T1 sequence (P34998 24-415): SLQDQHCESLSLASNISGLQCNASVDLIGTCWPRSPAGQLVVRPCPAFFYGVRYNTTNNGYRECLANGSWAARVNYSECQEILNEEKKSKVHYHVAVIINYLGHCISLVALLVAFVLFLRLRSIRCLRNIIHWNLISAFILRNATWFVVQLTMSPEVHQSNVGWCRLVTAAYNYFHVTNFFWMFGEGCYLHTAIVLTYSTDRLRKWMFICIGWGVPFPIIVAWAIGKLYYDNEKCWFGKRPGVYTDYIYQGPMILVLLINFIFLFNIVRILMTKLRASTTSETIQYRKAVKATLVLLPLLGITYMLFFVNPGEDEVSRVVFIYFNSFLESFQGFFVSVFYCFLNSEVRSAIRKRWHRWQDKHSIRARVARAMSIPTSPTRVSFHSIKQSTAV
SMILES,IC50 [1] [nM],melting point [°C]
"CCC(OC(C)=O)c1ccc(Cl)c2nc3n(c12)CCCN3c1ccc(Cl)cc1Cl (racemic) [Example 238, 1-[9-Chloro-1-(2,4-dichlorophenyl)-1,2,3,4-tetrahydropyrimido[1,2-a]benzimidazol-6-yl]propyl acetate]",< 1000,174 to 176
"CCC(OC(C)=O)c1ccc(Cl)c2nc3n(c12)CCCN3c1ccc(OC)nc1C (racemic) [Example 265, 1-[9-Chloro-1-(6-methoxy-2-methylpyridin-3-yl)-1,2,3,4-tetrahydropyrimido[1,2-a]benzimidazol-6-yl]propyl acetate]",< 1000,157 to 159
"CCC(CC)c1ccc(Cl)c2nc3n(c12)CCN3c1ccc(Cl)cc1Cl [Example 3, 8-Chloro-1-(2,4-dichlorophenyl)-5-(1-ethylpropyl)-2,3-dihydro-1H-imidazo[1,2-a]benzimidazole]",< 1000,171 to 173
"CCC(CC)c1ccc(Cl)c2nc3n(c12)CC(=O)N3c1ccc(Cl)cc1Cl [Example 4, 8-Chloro-1-(2,4-dichlorophenyl)-5-(1-ethylpropyl)-1H-imidazo[1,2-a]benzimidazol-2(3H)-one]",< 1000,200 to 202
"CCC(CC)c1ccc(Cl)c2nc3n(c12)CCN3c1ccc(Cl)cc1Br [Example 5, 1-(2-Bromo-4-chlorophenyl)-8-chloro-5-(1-ethylpropyl)-2,3-dihydro-1H-imidazo[1,2-a]benzimidazole]",< 1000,169 to 171
"CCC(CC)c1ccc(Cl)c2nc3n(c12)C(Cl)(Cl)C(=O)N3c1c(C)cc(Cl)cc1OC [Example 11, 3,3,8-Trichloro-1-(4-chloro-2-methoxy-6-methylphenyl)-5-(1-ethylpropyl)-1H-imidazo[1,2-a]benzimidazol-2(3H)-one]",< 1000,190 to 192
"CCC(CC)c1ccc(Cl)c2nc3n(c12)CCN3c1ccc(Br)cc1Cl [Example 12, 1-(4-Bromo-2-chlorophenyl)-8-chloro-5-(1-ethylpropyl)-2,3-dihydro-1H-imidazo[1,2-a]benzimidazole]",< 1000,165 to 168
"CCC(CC)c1ccc(Cl)c2nc3n(c12)CCN3c1ccc(C(N)=O)cc1Cl [Example 15, 3-Chloro-4-[8-chloro-5-(1-ethylpropyl)-2,3-dihydro-1H-imidazo[1,2-a]benzimidazol-1-yl]benzamide]",< 1000,225 to 229
"CCC(CC)c1ccc(Cl)c2nc3n(c12)CCCCN3c1ccc(Cl)cc1Cl [Example 21, 10-Chloro-1-(2,4-dichlorophenyl)-7-(1-ethylpropyl)-2,3,4,5-tetrahydro-1H-[1,3]diazepino[1,2-a]benzimidazole]",< 1000,160 to 162
"CCC(CC)c1ccc(Cl)c2nc3n(c12)CCCC(=O)N3c1ccc(Cl)cc1Cl [Example 22, 10-Chloro-1-(2,4-dichlorophenyl)-7-(1-ethylpropyl)-4,5-dihydro-1H-[1,3]diazepino[1,2-a]benzimidazol-2(3H)-one]",< 1000,135 to 137
"CCC(CC)c1ccc(Cl)c2nc3n(c12)CCCCN3c1ccc(Cl)cc1 [Example 23, 10-Chloro-1-(4-chlorophenyl)-7-(1-ethylpropyl)-2,3,4,5-tetrahydro-1H-[1,3]diazepino[1,2-a]benzimidazole]",< 1000,133 to 135
"CCC(CC)c1ccc(Cl)c2nc3n(c12)CCCCN3c1cnc(N(C)C)cc1C [Example 25, 5-[10-Chloro-7-(1-ethylpropyl)-2,3,4,5-tetrahydro-1H-[1,3]diazepino[1,2-a]benzimidazol-1-yl]-N,N,4-trimethylpyridin-2-amine]",< 1000,156 to 157
